Assay results reported in patent US20170349546A1, “Light-Activated Two-Component Protein Binding Matrix” (National University of Singapore, priority 2014, published 2017).
Where no end group is shown, it is not given here. The star is where a group is joined. Biotin = O=C1N[C@H]2[C@H](CS[C@H]2CCCCC(=O)*)N1

Test: Spiropyran modified beads pull-down of biotinylated peptide, residual HRP-streptavidin measured in solution
Format: binding
Settings: beads incubated with 10 μM peptide, washed twice with PBS, 1 μM HRP-conjugated streptavidin; exposed to light at time=60 minutes
Description: FIG. 3 is a line graph representing binding of peptides to beads selectively modified with a spiropyran molecule. The selectively modified beads were incubated with 10 μM of peptide B7, LAGPQMHGK (SEQ ID NO: 62), for the indicate length of time, and then washed twice with phosphate buffered saline (PBS). The beads were when incubated with 1 μM horseradish (HRP)-conjugated streptavidin, and the residual HRP-streptavidin was measured in solution. FIG. 3 illustrates the % absorbance of the beads after the indicated period of time. The higher the absorbance, the higher the concentration of streptavidin in the bulk solution. […]
Wash 1 mL agarose beads with 2 column volumes DMSO (take from bottle in anhydrous fashion). In different container, mix 2.5 mg spiropyran and 80 mg EDC and 100 mg of NHS. Dissolve these compounds in DMSO; wait for 10 minutes at room temp. Add beads (which are now in DMSO) to this mixture. Make sure good mixing/suspension, i.e. enough DMSO to fully suspend the entire matrix. Agitate for 12 hours. Wash modified matrix with DMSO×20 c.v. to wash out free compounds. Remove DMSO with water was ×20 column volumes. Then store in water or 20% ethanol. See FIG. 7 for examples of bead conjugation techniques.

## LAGPQMHGK (LAGPQMHGK(Biotin)) [peptide B7, biotinylated peptide aptamer, biotin covalently linked via the amine on the C-terminal lysine residue]
  residual HRP-streptavidin in bulk solution (% absorbance) after exposure to light: released back into the bulk solution
